Data as given in patent publication US9067967B2, “Peptides useful in the treatment and care of the skin and mucous membranes and their use in cosmetic or pharmaceutical compositions” (LIPOTEC, S.A., priority 2011, dated 2015).
Each block holds one substance with its values, some of them ahead of it.

Experiments:
Format in all cases: cell-based
[1] = tested on: human AQP-3 promoter; test: Modulation of the human AQP-3 promoter activity (luciferase reporter in stably transfected keratinocytes); conditions: peptide at 0.5 mg/mL, 16-24 hours; normalized to negative control (carrier = 100%)
Procedure: The modulation capacity of the promoter of the AQP-3 gene was evaluated in a cell line of keratinocytes stably transfected with the luciferase gene under the regulation of the human AQP-3 promoter. 20,000 to 30,000 cells per well were seeded and incubated for 24 hours in DMEM medium, after which the peptides of the invention were added at 0.5 mg/mL and were incubated for another 16-24 hours. The DMEM medium (carrier) was used as a negative control. The measurement of the promoter's activity was carried out using the Steady-Glo® Luciferase Assay System (PROMEGA) kit following the manufacturer's instructions. The luminescence values were read on a luminometer at 630 nm and the activity of the promoter was determined, which was normalized with regards to the values of the negative control.

[2] = tested on: AQP-3 gene; test: Relative quantification of AQP-3 mRNA by quantitative real time PCR in human epidermal keratinocytes; conditions: 0.1 mg/mL, 16-24 hours; normalized to untreated cells (carrier = 100%)
Procedure: The expression levels of the gene AQP-3 were measured by PCR in quantitative real time. A human keratinocyte cell line from adult skin was incubated at a density of 10,000 to 20,000 cells per well in EpiLife™ medium (Cascade Biologics) for 3-5 days and they were subsequently incubated with the peptides of the invention for another 16-24 hours, after which the cells were lysed and the RNA was extracted. The PCR was carried out in quantitative real time using the Taqman® Gene Expression Cells-to-CT (Applied Biosystems) kit according to the manufacturer's instructions and with the appropriate probes (TaqMan® Hs00185020_m1 probe for the AQP-3 gene and Taqman® Hs99999901_s1 probe for the eukaryotic ribosomal subunit 18S, the endogenous control of expression) and the values were normalized with regards to the basal levels of AQP-3 mRNA of the untreated cells (carrier).

[3] = tested on: human dermal fibroblasts (HDFa); test: Stimulation of collagen type I synthesis in human dermal fibroblasts (ELISA); conditions: 48 hours, carrier = 0%
Procedure: The ability of the peptides of the invention to stimulate collagen type I synthesis in human dermal fibroblasts (HDFa, Cascade Biologics) was evaluated in culture using ELISA (enzyme-linked immunosorbent assay). The fibroblasts grew in M106 supplemented with specific factors for their growth. 50,000 cells per well were seeded and incubated at 37° C., 5% CO2, with humidified air. After 24 hours the peptides of the invention were added, and were incubated for another 48 hours, after which the supernatants were collected.
96-well plates were covered with 50 μL of a standard bovine collagen type I (Sigma) or with the previously collected supernatants. The collagen was absorbed onto the wells throughout the night at 4° C. in a humidified atmosphere. The plates were washed three times and were blocked for one hour with 3% bovine serum albumin, after which they were incubated with a primary anti-collagen type I anti-body (Sigma) for 2 hours. Subsequently, the secondary antibody, goat anti-mouse IgG-HRP (Molecular Probes) was added. The plates were incubated with the […] for 30 minutes under stirring and the reaction was stopped by adding 3 M of H2SO4. The absorbance was measured at 490 nm in a plate reader (Genios, Tecan) and the concentration of collagen was determined by comparing it with a standard linear regression line.

[4] = tested on: human epidermal keratinocytes; test: Proliferation of human epidermal keratinocytes (calcein-AM fluorescence); conditions: 24 hours, carrier = 0%
Procedure: Cell proliferation was evaluated by a fluorescence-based cell viability method, in which the live cells are distinguished from the dead cells by the enzymatic conversion of calcein-AM to its fluorescent form.
Human keratinocytes were cultivated in DMEM supplemented with fetal bovine serum (FBS, Cultek) until confluence is achieved. The cells were then separated using trypsin and were seeded in 96-well plates. After 24 hours of incubation in DMEM at 37° C. in a humidified atmosphere at 5% CO2 a fresh medium was added with different concentrations of the product of the invention. Cells treated with DMEM as a negative control were used. The cells were incubated for another 24 hours under the same conditions and the medium was substituted by 100 μl of calcein-AM (Molecular Probes) at 0.4 μM diluted in phosphate buffered saline (PBS, Sigma). After 30 minutes of incubation at 37° C. the fluorescence was measured at excitation 485 nm 1 and emission 530 nm (λem) in a plate reader (Genios Tecan). The total growth percentage was calculated as T/C×100 wherein T is the fluorescence of the wells treated with the peptides of the invention and C the fluorescence of the control wells treated with DMEM.

Substance: Ac-L-Ser-L-Pro-L-Ala-Gly-Gly-L-Gln-NH2 (Ac-SPAGGQ-NH2) [Ac-SEQ ID 8-NH2]
Activity of the AQP-3 promoter (%) [1]: 152%

Substance: Ac-L-Ser-L-Pro-L-Ala-Gly-Gly-L-Pro-NH2 (Ac-SPAGGP-NH2) [Ac-SEQ ID 10-NH2]
Activity of the AQP-3 promoter (%) [1]: 135%
% relative quantity AQP-3 mRNA [2]: 200%
% Increase in collagen type I synthesis ([3]; 0.01 mg/mL): 36%
% Increase in collagen type I synthesis ([3]; 0.1 mg/mL): 58%
% Stimulation of proliferation ([4]; 0.16 mg/mL): 24%
% Stimulation of proliferation ([4]; 0.62 mg/mL): 28%
% Stimulation of proliferation ([4]; 2.50 mg/mL): 31%

Substance: Ac-L-Ser-L-Pro-L-Ala-L-Glu-Gly-Gly-NH2 (Ac-SPAEGG-NH2) [Ac-SEQ ID 6-NH2]
Activity of the AQP-3 promoter (%) [1]: 124%

Substance: Ac-L-Ser-L-Pro-L-Ala-L-Glu-Gly-L-Gln-NH2 (Ac-SPAEGQ-NH2) [Ac-SEQ ID 5-NH2]
Activity of the AQP-3 promoter (%) [1]: 121%

Substance: Ac-L-Ser-L-Val-L-Ala-Gly-Gly-L-Pro-NH2 (Ac-SVAGGP-NH2) [Ac-SEQ ID 13-NH2]
Activity of the AQP-3 promoter (%) [1]: 144%

Substance: Ac-L-Ser-L-Val-L-Ala-L-Glu-Gly-L-Gln-NH2 (Ac-SVAEGQ-NH2) [Ac-SEQ ID 12-NH2]
Activity of the AQP-3 promoter (%) [1]: 138%

Substance: Ac-L-Ser-L-Val-L-Ala-L-Val-Gly-Gly-NH2 (Ac-SVAVGG-NH2) [Ac-SEQ ID 16-NH2]
Activity of the AQP-3 promoter (%) [1]: 127%

Substance: Ac-L-Ser-L-Val-L-Ala-L-Val-Gly-L-Gln-NH2 (Ac-SVAVGQ-NH2) [Ac-SEQ ID 15-NH2]
Activity of the AQP-3 promoter (%) [1]: 129%
% relative quantity AQP-3 mRNA [2]: 162%

Substance: Ac-L-Ser-L-Val-L-Ala-L-Val-Gly-L-Pro-NH2 (Ac-SVAVGP-NH2) [Ac-SEQ ID 17-NH2]
Activity of the AQP-3 promoter (%) [1]: 121%

Substance: Ac-L-Tyr-L-Pro-L-Ala-Gly-Gly-Gly-NH2 (Ac-YPAGGG-NH2) [Ac-SEQ ID 25-NH2]
Activity of the AQP-3 promoter (%) [1]: 132%

Substance: Ac-L-Tyr-L-Pro-L-Ala-Gly-Gly-L-Pro-NH2 (Ac-YPAGGP-NH2) [Ac-SEQ ID 26-NH2]
Activity of the AQP-3 promoter (%) [1]: 114%

Substance: Ac-L-Tyr-L-Pro-L-Ala-L-Glu-Gly-Gly-NH2 (Ac-YPAEGG-NH2) [Ac-SEQ ID 23-NH2]
Activity of the AQP-3 promoter (%) [1]: 125%

Substance: Ac-L-Tyr-L-Pro-L-Ala-L-Glu-Gly-L-Gln-NH2 (Ac-YPAEGQ-NH2) [Ac-SEQ ID 22-NH2]
Activity of the AQP-3 promoter (%) [1]: 135%
% relative quantity AQP-3 mRNA [2]: 229%

Substance: Ac-L-Tyr-L-Pro-L-Ala-L-Glu-Gly-L-Pro-NH2 (Ac-YPAEGP-NH2) [Ac-SEQ ID 24-NH2]
Activity of the AQP-3 promoter (%) [1]: 121%

Substance: Ac-L-Tyr-L-Pro-L-Ala-L-Val-Gly-Gly-NH2 (Ac-YPAVGG-NH2) [Ac-SEQ ID 29-NH2]
Activity of the AQP-3 promoter (%) [1]: 125%

Substance: Ac-L-Tyr-L-Pro-L-Ala-L-Val-Gly-L-Gln-NH2 (Ac-YPAVGQ-NH2) [Ac-SEQ ID 28-NH2]
Activity of the AQP-3 promoter (%) [1]: 129%

Substance: Ac-L-Tyr-L-Pro-L-Ala-L-Val-Gly-L-His-NH2 (Ac-YPAVGH-NH2) [Ac-SEQ ID 30-NH2]
Activity of the AQP-3 promoter (%) [1]: 121%

Substance: Ac-L-Tyr-L-Pro-L-Ala-L-Val-Gly-L-Pro-NH2 (Ac-YPAVGP-NH2) [Ac-SEQ ID 31-NH2]
Activity of the AQP-3 promoter (%) [1]: 122%

Substance: Ac-L-Tyr-L-Val-L-Ala-L-Glu-Gly-L-Pro-NH2 (Ac-YVAEGP-NH2) [Ac-SEQ ID 32-NH2]
Activity of the AQP-3 promoter (%) [1]: 135%

Second part, the substance after the results:

Activity of the AQP-3 promoter (%) [1]: 120%
Substance: Ac-L-Ser-L-Pro-L-Ala-Gly-Gly-L-His-NH2 (Ac-SPAGGH-NH2) [Ac-SEQ ID 45-NH2]

Activity of the AQP-3 promoter (%) [1]: 117%
Substance: Ac-L-Ser-L-Pro-L-Ala-L-Glu-Gly-L-His-NH2 (Ac-SPAEGH-NH2) [Ac-SEQ ID 48-NH2]

Activity of the AQP-3 promoter (%) [1]: 126%
Substance: Ac-L-Ser-L-Pro-L-Ala-L-Val-Gly-Gly-NH2 (Ac-SPAVGG-NH2) [Ac-SEQ ID 40-NH2]

Activity of the AQP-3 promoter (%) [1]: 133%
Substance: Ac-L-Ser-L-Pro-L-Ala-L-Val-Gly-L-Gln-NH2 (Ac-SPAVGQ-NH2) [Ac-SEQ ID 39-NH2]

Activity of the AQP-3 promoter (%) [1]: 116%
Substance: Ac-L-Ser-L-Pro-L-Ala-L-Val-Gly-L-Pro-NH2 (Ac-SPAVGP-NH2) [Ac-SEQ ID 49-NH2]

Activity of the AQP-3 promoter (%) [1]: 156%
Substance: Ac-L-Ser-L-Val-L-Ala-Gly-Gly-Gly-NH2 (Ac-SVAGGG-NH2) [Ac-SEQ ID 38-NH2]

Activity of the AQP-3 promoter (%) [1]: 115%
Substance: Ac-L-Ser-L-Val-L-Ala-Gly-Gly-L-Gln-NH2 (Ac-SVAGGQ-NH2) [Ac-SEQ ID 50-NH2]

Activity of the AQP-3 promoter (%) [1]: 124%
Substance: Ac-L-Ser-L-Val-L-Ala-Gly-Gly-L-His-NH2 (Ac-SVAGGH-NH2) [Ac-SEQ ID 41-NH2]

Activity of the AQP-3 promoter (%) [1]: 119%
Substance: Ac-L-Ser-L-Val-L-Ala-L-Glu-Gly-Gly-NH2 (Ac-SVAEGG-NH2) [Ac-SEQ ID 46-NH2]

Activity of the AQP-3 promoter (%) [1]: 112%
Substance: Ac-L-Ser-L-Val-L-Ala-L-Glu-Gly-L-His-NH2 (Ac-SVAEGH-NH2) [Ac-SEQ ID 58-NH2]

Activity of the AQP-3 promoter (%) [1]: 122%
Substance: Ac-L-Tyr-L-Pro-L-Ala-Gly-Gly-L-Gln-NH2 (Ac-YPAGGQ-NH2) [Ac-SEQ ID 43-NH2]

Activity of the AQP-3 promoter (%) [1]: 129%
Substance: Ac-L-Tyr-L-Val-L-Ala-Gly-Gly-Gly-NH2 (Ac-YVAGGG-NH2) [Ac-SEQ ID 33-NH2]

Activity of the AQP-3 promoter (%) [1]: 123%
Substance: Ac-L-Tyr-L-Val-L-Ala-Gly-Gly-L-Gln-NH2 (Ac-YVAGGQ-NH2) [Ac-SEQ ID 42-NH2]

Activity of the AQP-3 promoter (%) [1]: 136%
Substance: Ac-L-Tyr-L-Val-L-Ala-Gly-Gly-L-His-NH2 (Ac-YVAGGH-NH2) [Ac-SEQ ID 34-NH2]

Activity of the AQP-3 promoter (%) [1]: 150%
Substance: Ac-L-Tyr-L-Val-L-Ala-Gly-Gly-L-Pro-NH2 (Ac-YVAGGP-NH2) [Ac-SEQ ID 35-NH2]

Activity of the AQP-3 promoter (%) [1]: 112%
Substance: Ac-L-Tyr-L-Val-L-Ala-L-Glu-Gly-Gly-NH2 (Ac-YVAEGG-NH2) [Ac-SEQ ID 56-NH2]

Activity of the AQP-3 promoter (%) [1]: 120%
Substance: Ac-L-Tyr-L-Val-L-Ala-L-Glu-Gly-L-His-NH2 (Ac-YVAEGH-NH2) [Ac-SEQ ID 44-NH2]

Activity of the AQP-3 promoter (%) [1]: 120%
Substance: Ac-L-Tyr-L-Val-L-Ala-L-Val-Gly-Gly-NH2 (Ac-YVAVGG-NH2) [Ac-SEQ ID 36-NH2]
